Each structure is given as a SMILES string. Where two headings read alike, the source gives them in different places.

Format in all cases: cell-based
In one assay the test system is MDA-MB-231. Kind of assay: CellTiter-Glo cell proliferation inhibition, MDA-MB-231. The conditions noted are these: Homo sapiens, MDA-MB-231 (CTG), starting concentration 10 μM; for inhibition at up to 10 µM: read-out: IH % max (maximum inhibition percentage). An excerpt:
(§1) 1. Cell line • (1) Breast cancer cell lines and their culture media: • MCF-7 (ATCC; Cat. No.: HTB-22), a Luminal A breast cancer cell; • TamR-MCF-7 (ATCC; Cat. No.: CRL-3435), a breast cancer cell; • MCF-7 ER^D538G: a Luminal A breast cancer cell obtained by constructing MCF-7 (ATCC; Cat. No.: HTB-22) using CRISPR-Cas9 gene editing technology; • MCF-7 ER^Y537S: a Luminal A breast cancer cell obtained by constructing MCF-7 (ATCC; Cat. No.: HTB-22) using CRISPR-Cas9 gene editing technology; • MDA-MB-231: (manufacturer: Nanjing CoBioer Biosciences Co., Ltd.), a triple-negative breast cancer cell; • MDA-MB-468: (manufacturer: Nanjing CoBioer Biosciences Co., Ltd.), a triple-negative breast cancer cell.
(§2) Herein, the culture medium of MCF-7, TamR-MCF-7, MCF-7 ER^D538G, and MCF-7 ER^Y537S was EMEM; • the culture medium of MDA-MB-231 and MDA-MB-468 was DMEM.
(§3) 2. Reagents • Culture medium EMEM (Gibco, 1964507) • Culture medium DMEM (Gibco, 12430-054) • Fetal bovine serum (Gibco, 10091148) • Penicillin-streptomycin double antibody (Gibco, S110JV) • DPBS (Gibco, 14190-144) • CellTiter-Glo® assay kit (Promega, G7573) • Trypsin (0.25%) (Gibco, 25200-056) • DMSO (Sigma, D2650)
(§4) 3. Instruments • Biosafety cabinet (AIRTECH, BSC-1300A II) • Automated cell counter (Life Technologies, countess II) • Multifunctional microplate reader (Biotek, H1FM) • Orbital shaker (Hangzhou Allsheng Instruments Co., Ltd., OS-100) • XLFIT 5.3 (Inforstack Shanghai Co., Ltd.)
(§5) For this test method, the following experiments were performed in a biosafety cabinet, with the specific steps as follows: • (1) Cells were inoculated in a 96-well plate. One day later, the previous culture medium was poured off, 5 mL of DPBS was added to wash the cells, and then DPBS was pipetted and discarded. An appropriate amount of trypsin was then added. The plate was digested in a 37° C., 5% CO2 cell incubator for about 2 to 5 minutes and then taken out. Anew corresponding culture medium was added, and pipetted up and down to resuspend the cells evenly. The cells were then counted using an automated cell counter. • (2) Each cell was inoculated in columns 1 to 11 of a 96-well plate (Corning, Cat. No.: 3610) at a density of 1,000 or 2,000 cells per well in 100 μL of culture medium, and 100 μL of the corresponding culture medium without cells was added to the wells in column 12. The plate was then placed in a 37° C., 5% CO2 incubator for 24 hours. • (3) The compound of the present disclosure and the control drug fulvestrant (Selleck; Cat. No.: S1191) were then 4-fold serially diluted to 10 dose points starting at 10 μM. 10 μL of the serially diluted compound was pipetted and added to 100 μL of cells in columns 1 to 10, and 10 μL of the corresponding culture medium containing 0.33 v % DMSO was added to both columns 11 and 12. The plate was incubated in a 37° C., 5% CO2 incubator for 6 days or 72 hours (Note: column 11 was used as a MAX well with cells but without compound; column 12 was used as a MIN well without cells […]). • (4) The cell viability detection reagent in the CellTiter-Glo® assay kit was then added to the 96-well plate at 50 μL per well according to the instructions, and shaken on an orbital shaker in the dark for 5 to 10 minutes. The cell viability was then measured using a multifunctional microplate reader. Finally, the inhibition of cell proliferation by the compound of the present disclosure was plotted by XLFIT software, and the IC50 value (half inhibitory concentration) and the IH % max (maximum inhibition percentage) of the compound of the present disclosure were calculated.
(§6) Compounds D64 to D69 were tested for MDA-MB-231 (CTG) and MDA-MB-468 (CTG) with an incubation time of 72 hours in the incubator.
Background: ATP-based viability assays read luminescence as a measure of living cells.

The subject of another assay is MDA-MB-468. Kind of assay: CellTiter-Glo cell proliferation inhibition, MDA-MB-468. The conditions noted are these: Homo sapiens, MDA-MB-468 (CTG), starting concentration 10 μM; for inhibition at up to 10 µM: read-out: IH % max (maximum inhibition percentage).
From the text: as §1, §2, §3, §4, §5, §6

For another assay, the system named is MCF-7. As to the kind of experiment: CellTiter-Glo cell proliferation inhibition, MCF-7 (Effect Example 2). The conditions noted are these: Homo sapiens, MCF7, 144 h; MCF-7 (CTG), 6 days, starting concentration 10 μM; read-out: IH % max (maximum inhibition percentage).
From the text: as §1, §2, §3, §4, §5

The test system of a further assay is MCF-7 ER^D538G. Kind of assay: CellTiter-Glo cell proliferation inhibition, MCF-7 ER^D538G. The conditions noted are these: Homo sapiens, MCF7, 144 h, MCF-7 ER^D538G (CTG), 6 days, starting concentration 10 μM; for inhibition at up to 10 µM: read-out: IH % max (maximum inhibition percentage).
From the text: as §1, §2, §3, §4, §5

The test system of the next assay is TamR-MCF-7. As to the kind of experiment: CellTiter-Glo cell proliferation inhibition, TamR-MCF-7. The conditions noted are these: 144 h; TamR-MCF-7 (CTG), 6 days, starting concentration 10 μM; read-out: IH % max (maximum inhibition percentage).
From the text: as §1, §2, §3, §4, §5

The next assay concerns MCF-7 ER^Y537S. Kind of assay: CellTiter-Glo cell proliferation inhibition, MCF-7 ER^Y537S. The conditions noted are these: Homo sapiens, MCF7, 144 h; MCF-7 ER^Y537S (CTG), 6 days, starting concentration 10 μM; read-out: IH % max (maximum inhibition percentage).
From the text: as §1, §2, §3, §4, §5

The mark [1] stands for this setting: incubation time 72 hours (D64 to D69).

Broadly, the IC50 is the midpoint of a concentration-inhibition curve. Read a low IC50 as higher potency. Usually inhibition stands for the drop in the measured response relative to a control, in per cent. On to `CNC(=O)c1ccc(-c2ccc3cc(O)ccc3c2Oc2ccc(OCCN3CCN(c4ccc5c(c4)CN(C4CCC(=O)NC4=O)C5=O)CC3)cc2)cc1` (stereo not shown) [Compound D64, 4-(1-(4-(2-(4-(2-(2,6-dioxopiperidin-3-yl)-1-oxoisoindolin-5-yl)piperazin-1-yl)ethoxy)phenoxy)-6-hydroxynaphthalen-2-yl)-N-methylbenzamide], for which, in the assay with MDA-MB-231 (setting [1]), 9.8 nM corresponded to half-maximal inhibition (IC50) and the inhibition at up to 10 µM was found to be 79.8%. Besides, in the assay with MDA-MB-468 (setting [1]), the IC50 turned out to be 19.3 nM and the inhibition at up to 10 µM was 87%.
For the compound `CS(=O)(=O)c1ccc(-c2ccc3cc(O)ccc3c2Oc2ccc(N3CCN(CC(=O)N4CCN(c5ccc6c(c5)CN(C5CCC(=O)NC5=O)C6=O)CC4)CC3)cc2)cc1` (stereo not shown) [Compound D12, 3-(5-(4-(2-(4-(4-((6-hydroxy-2-(4-(methylsulfonyl)phenyl)naphthalen-1-yl)oxy)phenyl)piperazin-1-yl)acetyl)piperazin-1-yl)-1-oxoisoindolin-2-yl)piperidine-2,6-dione], the inhibition at up to 10 µM with MDA-MB-231 (144 h, 6 days) came out at 37%; in the assay with MCF-7 it was 45%; in the assay on MCF-7 ER^D538G, 68%. The compound also registered an IC50 in the assay on MCF-7 ER^D538G of 761 nM.
Regarding `CCN(CCOCCOCCN1CCN(c2cccc3c2CN(C2CCC(=O)NC2=O)C3=O)CC1)CCOc1ccc(Oc2c(-c3ccc(S(C)(=O)=O)cc3)ccc3cc(O)ccc23)cc1` (stereo not shown) [Compound D40], the inhibition at up to 10 µM with TamR-MCF-7 was 31%; in the assay with MCF-7 it was 34%; in the assay on MCF-7 ER^Y537S, 61%; with MCF-7 ER^D538G, 72%; in the assay with MDA-MB-468 (144 h, 6 days) it was 71%.
On to `CCN(CCOc1ccc(Oc2c(-c3ccc(S(C)(=O)=O)cc3)ccc3cc(O)ccc23)cc1)CC(=O)N1CCN(c2ccc3c(c2)CN(C2CCC(=O)NC2=O)C3=O)CC1` (stereo not shown) [Compound D7, 3-(5-(4-(N-ethyl-N-(2-(4-((6-hydroxy-2-(4-(methylsulfonyl)phenyl)naphthalen-1-yl)oxy)phenoxy)ethyl)glycyl)piperazin-1-yl)-1-oxoisoindolin-2-yl)piperidine-2,6-dione], for which the inhibition at up to 10 µM with TamR-MCF-7 came to 47%; in the assay on MCF-7, 49%; in the assay on MCF-7 ER^Y537S it was 60%; with MCF-7 ER^D538G, 40%; in the assay with MDA-MB-468 (144 h, 6 days) it was 63%.
Turning to `CNC(=O)c1ccc(-c2ccc3ccccc3c2Oc2ccc(OC(=O)N3CCN(c4ccc5c(c4)CN(C4CCC(=O)NC4=O)C5=O)CC3)cc2)cc1` (stereo not shown) [Compound D69, 4-((2-(4-(methylcarbamoyl)phenyl)naphthalen-1-yl)oxy)phenyl 4-(2-(2,6-dioxopiperidin-3-yl)-1-oxoisoindolin-5-yl)piperazine-1-carboxylate], in the assay on MDA-MB-231 (setting [1]), the IC50 is 2.2 nM and the inhibition at up to 10 µM turned out to be 91.7%. Further, in the assay with MDA-MB-468 (setting [1]), the half-maximal inhibitory concentration (IC50) came to 2.7 nM and the inhibition at up to 10 µM was 92.8%.
Taken in the same sequence, the figures for `CN(C)C(=O)c1ccc(-c2ccc3ccccc3c2Oc2ccc(OC(=O)N3CCN(c4ccc5c(c4)CN(C4CCC(=O)NC4=O)C5=O)CC3)cc2)cc1` (stereo not shown) [Compound D67, 4-((2-(4-(dimethylcarbamoyl)phenyl)naphthalen-1-yl)oxy)phenyl 4-(2-(2,6-dioxopiperidin-3-yl)-1-oxoisoindolin-5-yl)piperazine-1-carboxylate] were 3.7 nM, 79.2%, 4.4 nM and 83.6%.
Take `CCN(CCOCCOCCNc1cccc2c1CN(C1CCC(=O)NC1=O)C2=O)CCOc1ccc(Oc2c(-c3ccc(S(C)(=O)=O)cc3)ccc3cc(O)ccc23)cc1` (stereo not shown) [Compound D26, 3-(4-((2-(2-(2-(ethyl(2-(4-((6-hydroxy-2-(4-(methylsulfonyl)phenyl)naphthalen-1-yl)oxy)phenoxy)ethyl)amino)ethoxy)ethoxy)ethyl)amino)-1-oxoisoindolin-2-yl)piperidine-2,6-dione]: the inhibition at up to 10 µM in the assay with TamR-MCF-7 came to 35%; in the assay with MCF-7, 55%; in the assay with MCF-7 ER^Y537S it was 43%; in the assay with MCF-7 ER^D538G, 75%; in the assay with MDA-MB-468 (144 h, 6 days), 37%.
Consider `CCN(CCOCCOCCOCCNc1cccc2c1C(=O)N(C1CCC(=O)NC1=O)C2=O)CCOc1ccc(Oc2c(-c3ccc(S(C)(=O)=O)cc3)ccc3cc(O)ccc23)cc1` (stereo not shown) [Compound D39, 2-(2,6-dioxopiperidin-3-yl)-4-((3-ethyl-1-(4-((6-hydroxy-2-(4-(methylsulfonyl)phenyl)naphthalen-1-yl)oxy)phenoxy)-6,9,12-trioxa-3-azatetradecan-14-yl)amino)isoindoline-1,3-dione], for which the inhibition at up to 10 µM in the assay with TamR-MCF-7 came to 32%; in the assay on MCF-7, 35%; with MCF-7 ER^Y537S, 48%; with MCF-7 ER^D538G, 73%; in the assay with MDA-MB-468 (144 h, 6 days), 51%. The compound also yielded an IC50 in the assay with MCF-7 ER^D538G of 158 nM.
For the compound `CCN(CCCCCOCC(=O)Nc1cccc2c1CN(C1CCC(=O)NC1=O)C2=O)CCOc1ccc(Oc2c(-c3ccc(S(C)(=O)=O)cc3)ccc3cc(O)ccc23)cc1` (stereo not shown) [Compound D1, N-(2-(2,6-dioxopiperidin-3-yl)-1-oxoisoindolin-4-yl)-2-((5-(ethyl(2-(4-((6-hydroxy-2-(4-(methylsulfonyl)phenyl)naphthalen-1-yl)oxy)phenoxy)ethyl)amino)pentyl)oxy)acetamide], the inhibition at up to 10 µM stood at 33% with TamR-MCF-7, 30% with MCF-7, 73% in the assay with MCF-7 ER^Y537S and 79% in the assay with MCF-7 ER^D538G.
For `CCN(CCCc1ccc2c(c1)CN(C1CCC(=O)NC1=O)C2=O)CCOc1ccc(Oc2c(-c3ccc(S(C)(=O)=O)cc3)ccc3cc(O)ccc23)cc1` (stereo not shown) [Compound D4, 3-(5-(3-(ethyl(2-(4-((6-hydroxy-2-(4-(methylsulfonyl)phenyl)naphthalen-1-yl)oxy)phenoxy)ethyl)amino)propyl)-1-oxoisoindolin-2-yl)piperidine-2,6-dione], the inhibition at up to 10 µM in the assay on TamR-MCF-7 is 32%; in the assay on MCF-7 ER^Y537S, 63%; in the assay with MCF-7 ER^D538G, 80%; in the assay with MDA-MB-468 (144 h, 6 days), 53%. This compound registered an IC50 in the assay on MCF-7 ER^D538G of 502 nM.

The values are drawn from patent publication US20240131168A1, “NAPHTHALENE RING-CONTAINING COMPOUND, PHARMACEUTICAL COMPOSITION CONTAINING SAME, AND USE THEREOF” (JIANGSU YAHONG MEDITECH CO., LTD., priority 2021, published 2024).
